# Laboratory results: ChEMBL document CHEMBL3784917, “Recent Progress in Histone Demethylase Inhibitors” (J Med Chem, 2016)
# How the values were obtained:
# [1] = biological target: T1, Lysine-specific demethylase 2B (Homo sapiens, UniProt Q8NHM5); assay: biochemical
# T1 sequence (Q8NHM5 whole entry): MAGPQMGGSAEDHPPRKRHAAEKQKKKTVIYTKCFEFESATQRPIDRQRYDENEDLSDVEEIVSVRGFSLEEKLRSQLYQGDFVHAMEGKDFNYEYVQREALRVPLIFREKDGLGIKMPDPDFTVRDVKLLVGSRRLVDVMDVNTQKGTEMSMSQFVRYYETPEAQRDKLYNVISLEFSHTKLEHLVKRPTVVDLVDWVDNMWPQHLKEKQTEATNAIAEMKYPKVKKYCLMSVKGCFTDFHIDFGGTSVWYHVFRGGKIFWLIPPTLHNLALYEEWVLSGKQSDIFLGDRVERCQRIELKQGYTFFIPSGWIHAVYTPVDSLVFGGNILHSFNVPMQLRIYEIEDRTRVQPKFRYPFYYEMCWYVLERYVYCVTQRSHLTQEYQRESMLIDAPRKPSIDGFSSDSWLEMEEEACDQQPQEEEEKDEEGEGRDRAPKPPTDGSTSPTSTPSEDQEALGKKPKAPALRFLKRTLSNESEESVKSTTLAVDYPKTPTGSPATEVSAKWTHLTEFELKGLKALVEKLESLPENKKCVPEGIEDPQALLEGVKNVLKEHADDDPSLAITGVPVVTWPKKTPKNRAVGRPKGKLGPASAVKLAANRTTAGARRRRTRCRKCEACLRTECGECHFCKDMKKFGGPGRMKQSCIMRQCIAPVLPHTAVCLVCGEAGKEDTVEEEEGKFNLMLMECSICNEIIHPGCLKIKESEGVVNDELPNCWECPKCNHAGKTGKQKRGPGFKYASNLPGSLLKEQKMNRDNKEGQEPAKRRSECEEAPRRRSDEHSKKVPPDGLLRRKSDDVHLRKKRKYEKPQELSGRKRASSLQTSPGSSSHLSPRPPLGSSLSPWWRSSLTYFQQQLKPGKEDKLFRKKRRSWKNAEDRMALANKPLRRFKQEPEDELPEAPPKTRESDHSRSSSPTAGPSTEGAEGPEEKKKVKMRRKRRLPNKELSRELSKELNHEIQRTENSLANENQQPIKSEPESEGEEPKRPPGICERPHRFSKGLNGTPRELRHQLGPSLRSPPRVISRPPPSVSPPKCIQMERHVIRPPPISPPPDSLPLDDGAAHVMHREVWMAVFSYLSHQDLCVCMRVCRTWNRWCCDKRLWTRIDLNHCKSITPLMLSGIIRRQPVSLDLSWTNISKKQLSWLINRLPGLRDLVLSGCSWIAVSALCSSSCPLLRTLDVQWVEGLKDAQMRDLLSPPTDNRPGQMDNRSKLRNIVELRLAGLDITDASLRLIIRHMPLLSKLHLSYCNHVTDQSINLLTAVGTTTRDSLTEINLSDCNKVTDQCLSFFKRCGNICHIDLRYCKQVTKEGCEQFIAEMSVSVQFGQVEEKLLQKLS
# [2] = biological target: Lysine-specific demethylase 6A (Homo sapiens, UniProt O15550)
# Sequence of Lysine-specific demethylase 6A (O15550 whole entry): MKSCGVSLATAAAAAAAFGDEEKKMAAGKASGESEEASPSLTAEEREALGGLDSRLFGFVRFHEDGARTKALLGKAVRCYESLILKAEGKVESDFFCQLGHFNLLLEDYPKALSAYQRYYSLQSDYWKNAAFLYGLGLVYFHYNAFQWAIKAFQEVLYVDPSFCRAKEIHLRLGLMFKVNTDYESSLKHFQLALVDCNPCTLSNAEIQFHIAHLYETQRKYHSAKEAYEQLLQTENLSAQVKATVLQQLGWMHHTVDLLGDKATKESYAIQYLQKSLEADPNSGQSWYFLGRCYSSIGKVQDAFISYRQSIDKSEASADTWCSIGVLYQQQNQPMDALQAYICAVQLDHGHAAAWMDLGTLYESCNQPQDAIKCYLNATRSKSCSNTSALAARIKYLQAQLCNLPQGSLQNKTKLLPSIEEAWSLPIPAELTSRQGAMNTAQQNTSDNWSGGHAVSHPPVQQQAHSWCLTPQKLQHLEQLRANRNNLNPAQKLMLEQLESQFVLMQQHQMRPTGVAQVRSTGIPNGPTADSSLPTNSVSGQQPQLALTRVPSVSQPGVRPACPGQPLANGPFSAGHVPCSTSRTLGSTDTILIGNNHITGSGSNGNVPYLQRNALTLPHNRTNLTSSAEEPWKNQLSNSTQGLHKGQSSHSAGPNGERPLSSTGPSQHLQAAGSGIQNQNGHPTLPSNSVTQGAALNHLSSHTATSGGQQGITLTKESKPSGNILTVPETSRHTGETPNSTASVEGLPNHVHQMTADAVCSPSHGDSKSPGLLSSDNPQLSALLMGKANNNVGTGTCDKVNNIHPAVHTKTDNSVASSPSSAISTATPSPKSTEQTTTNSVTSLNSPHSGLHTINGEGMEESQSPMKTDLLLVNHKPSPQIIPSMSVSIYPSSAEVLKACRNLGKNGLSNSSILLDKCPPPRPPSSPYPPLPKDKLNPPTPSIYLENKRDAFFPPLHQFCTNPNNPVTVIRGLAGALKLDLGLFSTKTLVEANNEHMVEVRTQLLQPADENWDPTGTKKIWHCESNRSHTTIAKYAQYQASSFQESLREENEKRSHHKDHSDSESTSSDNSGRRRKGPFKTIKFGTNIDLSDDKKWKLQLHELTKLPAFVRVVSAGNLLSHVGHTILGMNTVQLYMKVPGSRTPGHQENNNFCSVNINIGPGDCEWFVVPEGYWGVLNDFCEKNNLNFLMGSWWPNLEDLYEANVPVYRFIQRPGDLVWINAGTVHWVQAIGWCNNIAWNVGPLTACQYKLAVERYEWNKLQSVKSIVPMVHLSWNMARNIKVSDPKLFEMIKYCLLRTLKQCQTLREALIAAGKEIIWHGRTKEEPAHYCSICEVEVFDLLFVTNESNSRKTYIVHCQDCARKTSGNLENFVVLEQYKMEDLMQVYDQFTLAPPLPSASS
# [3] = biological target: Lysine-specific demethylase 3B (Homo sapiens, UniProt Q7LBC6); assay: biochemical
# Sequence of Lysine-specific demethylase 3B (Q7LBC6 whole entry, the tested form may be a part): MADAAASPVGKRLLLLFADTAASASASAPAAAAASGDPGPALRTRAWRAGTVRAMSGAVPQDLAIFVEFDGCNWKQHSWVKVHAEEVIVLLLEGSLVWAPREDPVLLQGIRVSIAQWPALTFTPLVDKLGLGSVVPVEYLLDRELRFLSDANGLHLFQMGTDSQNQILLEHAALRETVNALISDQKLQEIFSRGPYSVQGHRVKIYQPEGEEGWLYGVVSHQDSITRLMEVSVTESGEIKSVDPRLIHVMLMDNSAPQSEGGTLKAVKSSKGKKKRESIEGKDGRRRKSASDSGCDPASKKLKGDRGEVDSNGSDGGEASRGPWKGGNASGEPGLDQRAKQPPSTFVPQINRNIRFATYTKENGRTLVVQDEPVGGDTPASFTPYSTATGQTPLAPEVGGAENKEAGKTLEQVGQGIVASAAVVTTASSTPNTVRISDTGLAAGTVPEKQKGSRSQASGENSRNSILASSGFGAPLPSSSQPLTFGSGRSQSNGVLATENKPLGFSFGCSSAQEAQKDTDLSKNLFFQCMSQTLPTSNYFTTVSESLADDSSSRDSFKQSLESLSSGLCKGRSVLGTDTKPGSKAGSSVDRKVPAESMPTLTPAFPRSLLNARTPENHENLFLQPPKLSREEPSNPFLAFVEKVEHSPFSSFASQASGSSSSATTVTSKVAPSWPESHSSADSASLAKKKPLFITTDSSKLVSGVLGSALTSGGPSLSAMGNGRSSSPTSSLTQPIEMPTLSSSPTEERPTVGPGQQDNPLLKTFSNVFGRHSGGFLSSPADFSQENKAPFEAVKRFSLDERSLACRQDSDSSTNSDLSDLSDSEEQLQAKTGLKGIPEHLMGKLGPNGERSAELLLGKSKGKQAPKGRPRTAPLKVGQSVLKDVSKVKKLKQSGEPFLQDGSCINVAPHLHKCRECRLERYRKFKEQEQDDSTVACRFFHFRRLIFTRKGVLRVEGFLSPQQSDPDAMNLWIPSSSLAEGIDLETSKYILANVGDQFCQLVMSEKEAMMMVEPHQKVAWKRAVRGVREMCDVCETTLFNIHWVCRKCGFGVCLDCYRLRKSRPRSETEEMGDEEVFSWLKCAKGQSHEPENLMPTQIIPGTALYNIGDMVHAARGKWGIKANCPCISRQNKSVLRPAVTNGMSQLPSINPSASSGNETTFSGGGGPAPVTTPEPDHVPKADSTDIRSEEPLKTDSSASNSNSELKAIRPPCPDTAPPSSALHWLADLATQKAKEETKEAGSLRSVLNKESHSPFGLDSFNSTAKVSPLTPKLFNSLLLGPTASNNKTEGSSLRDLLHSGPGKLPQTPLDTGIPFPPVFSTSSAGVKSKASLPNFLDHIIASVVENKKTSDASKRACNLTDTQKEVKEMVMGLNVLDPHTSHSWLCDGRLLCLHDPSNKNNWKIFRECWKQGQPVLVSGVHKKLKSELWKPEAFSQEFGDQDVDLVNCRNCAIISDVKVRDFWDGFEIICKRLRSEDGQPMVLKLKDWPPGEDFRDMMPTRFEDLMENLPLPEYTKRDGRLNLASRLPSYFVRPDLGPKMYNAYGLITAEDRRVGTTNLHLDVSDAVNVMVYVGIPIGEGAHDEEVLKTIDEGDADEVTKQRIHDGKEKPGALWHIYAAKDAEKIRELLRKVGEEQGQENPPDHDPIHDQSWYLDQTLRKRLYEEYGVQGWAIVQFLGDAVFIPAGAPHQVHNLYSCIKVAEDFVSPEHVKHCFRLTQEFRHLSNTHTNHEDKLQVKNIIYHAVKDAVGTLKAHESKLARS
# [4] = biological target: T2, Lysine-specific demethylase 4A (Homo sapiens, UniProt O75164); assay: Inhibition of recombinant human N-terminal His-tagged KDM4A (1 to 350 residues) expressed in Escherichia coli using methylated biotin-H3K9 substrate preincubated for 10 mins followed by substrate addition measured after 10 mins by AlphaLisa assay
# T2 sequence (O75164 whole entry): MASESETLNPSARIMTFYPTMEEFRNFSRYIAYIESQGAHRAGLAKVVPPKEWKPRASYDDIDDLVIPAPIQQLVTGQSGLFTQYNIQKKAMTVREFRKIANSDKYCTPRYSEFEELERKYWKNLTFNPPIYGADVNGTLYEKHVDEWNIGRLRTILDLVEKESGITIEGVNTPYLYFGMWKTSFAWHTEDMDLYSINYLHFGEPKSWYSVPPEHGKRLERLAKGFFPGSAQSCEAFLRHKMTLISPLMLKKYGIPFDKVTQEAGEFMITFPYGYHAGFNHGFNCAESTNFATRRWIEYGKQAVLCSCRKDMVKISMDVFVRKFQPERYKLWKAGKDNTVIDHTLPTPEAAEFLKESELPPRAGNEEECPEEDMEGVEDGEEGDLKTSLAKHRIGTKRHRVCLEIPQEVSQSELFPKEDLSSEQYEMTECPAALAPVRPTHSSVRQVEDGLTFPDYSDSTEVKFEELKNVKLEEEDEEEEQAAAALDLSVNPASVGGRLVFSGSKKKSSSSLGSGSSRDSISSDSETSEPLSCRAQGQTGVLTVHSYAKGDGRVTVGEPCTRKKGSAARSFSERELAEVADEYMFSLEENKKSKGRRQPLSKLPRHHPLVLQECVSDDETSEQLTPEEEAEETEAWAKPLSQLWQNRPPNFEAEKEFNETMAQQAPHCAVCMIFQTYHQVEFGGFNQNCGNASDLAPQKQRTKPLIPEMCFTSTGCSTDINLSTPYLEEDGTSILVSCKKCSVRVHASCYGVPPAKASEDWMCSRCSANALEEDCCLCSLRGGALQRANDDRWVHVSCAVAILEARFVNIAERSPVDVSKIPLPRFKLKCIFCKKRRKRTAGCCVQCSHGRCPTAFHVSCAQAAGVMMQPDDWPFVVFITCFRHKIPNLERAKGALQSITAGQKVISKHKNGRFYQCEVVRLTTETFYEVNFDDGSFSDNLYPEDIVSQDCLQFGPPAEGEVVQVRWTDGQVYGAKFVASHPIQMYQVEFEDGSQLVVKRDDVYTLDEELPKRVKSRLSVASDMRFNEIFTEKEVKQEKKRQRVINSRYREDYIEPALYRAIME
# [5] = biological target: Lysine-specific demethylase 5B (Homo sapiens, UniProt Q9UGL1)
# Sequence of Lysine-specific demethylase 5B (Q9UGL1 whole entry): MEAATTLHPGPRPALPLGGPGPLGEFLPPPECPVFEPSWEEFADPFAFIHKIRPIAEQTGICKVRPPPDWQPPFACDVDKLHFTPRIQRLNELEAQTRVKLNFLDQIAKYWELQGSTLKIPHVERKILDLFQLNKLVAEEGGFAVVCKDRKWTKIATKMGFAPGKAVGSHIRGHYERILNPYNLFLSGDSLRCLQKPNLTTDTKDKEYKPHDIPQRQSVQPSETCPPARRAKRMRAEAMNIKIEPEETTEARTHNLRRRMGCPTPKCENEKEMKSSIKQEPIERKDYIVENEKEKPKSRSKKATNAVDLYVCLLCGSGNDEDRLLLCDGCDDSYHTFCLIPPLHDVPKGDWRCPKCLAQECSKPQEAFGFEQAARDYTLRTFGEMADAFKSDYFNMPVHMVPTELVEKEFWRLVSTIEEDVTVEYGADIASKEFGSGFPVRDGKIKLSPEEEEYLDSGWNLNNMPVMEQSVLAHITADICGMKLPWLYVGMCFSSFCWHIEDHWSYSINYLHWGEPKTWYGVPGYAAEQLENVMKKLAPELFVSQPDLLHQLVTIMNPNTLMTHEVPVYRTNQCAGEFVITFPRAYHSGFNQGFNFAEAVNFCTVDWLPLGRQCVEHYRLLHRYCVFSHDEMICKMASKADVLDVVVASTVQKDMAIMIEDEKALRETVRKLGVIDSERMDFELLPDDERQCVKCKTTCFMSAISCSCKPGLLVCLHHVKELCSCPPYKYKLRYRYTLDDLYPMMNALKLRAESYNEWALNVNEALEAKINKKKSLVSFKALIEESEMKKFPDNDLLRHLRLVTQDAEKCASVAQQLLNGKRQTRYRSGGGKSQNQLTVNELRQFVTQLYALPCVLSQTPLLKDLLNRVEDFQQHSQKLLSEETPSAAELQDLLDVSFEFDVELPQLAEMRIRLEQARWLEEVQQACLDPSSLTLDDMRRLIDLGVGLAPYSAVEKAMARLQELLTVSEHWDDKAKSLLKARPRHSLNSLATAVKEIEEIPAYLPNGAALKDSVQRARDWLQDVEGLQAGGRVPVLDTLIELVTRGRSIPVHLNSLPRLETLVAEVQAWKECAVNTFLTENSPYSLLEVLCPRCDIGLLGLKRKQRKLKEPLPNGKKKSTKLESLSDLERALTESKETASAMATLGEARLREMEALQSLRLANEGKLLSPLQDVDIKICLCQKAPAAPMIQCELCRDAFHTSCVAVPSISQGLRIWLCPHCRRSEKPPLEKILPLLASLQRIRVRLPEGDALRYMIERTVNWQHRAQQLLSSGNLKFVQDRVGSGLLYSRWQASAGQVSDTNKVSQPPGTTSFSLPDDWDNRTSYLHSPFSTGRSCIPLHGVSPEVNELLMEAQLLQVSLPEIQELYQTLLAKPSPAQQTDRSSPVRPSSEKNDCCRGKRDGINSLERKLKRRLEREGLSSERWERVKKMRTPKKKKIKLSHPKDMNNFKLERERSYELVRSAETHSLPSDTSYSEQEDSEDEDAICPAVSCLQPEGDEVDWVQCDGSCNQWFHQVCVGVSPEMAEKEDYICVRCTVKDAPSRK
IC50 [1] [µM],IC50 [2] [µM],IC50 [3] [µM],IC50 [4] [µM],IC50 [5] [µM],SMILES
0.1,> 1,> 1,< 0.1,< 0.1,CCN(CCN(C)C)C(=O)CNCc1cc(C(=O)O)ccn1
> 2.5,> 2.5,> 2.5,> 2.5,0.25,CCN(CCN(C)C)C(=O)CNCc1cc(CNC(=O)C(F)(F)F)ccn1
> 2.5,> 2.5,> 2.5,> 2.5,< 0.25,CCN(CC)CCCCNCc1cc(C=O)ccn1
